Laboratory results reported in patent US11542263B2 (NeuroCycle Therapeutics, Inc., priority 2018, dated 2023).
Converted amounts (≈) assume the structure as drawn. Where two headings read alike, the source gives them in different places. Each block holds one molecule with its values, some of them ahead of it.

Assays:
Assay type in all cases: physicochemical
[1] = Accelerated stability testing (HPLC assay and purity); settings: for Assay (%): assay criterion 95%-105%
Description: The stability of Phosphate Polymorphic Form and Free Base Polymorphic Form A were evaluated under accelerated conditions.
Appropriately 2 mg of compounds were accurately weighed into a glass vial, then added diluents (ACN/water, 50/50) and sonicated for 2 minutes to dilute the target concentration of 0.2 mg/mL. The solution was equilibrated to room temperature and then the purity of the compounds was determined by HPLC.

[2] = Solubility in aqueous buffers and simulated fluids, 24 h, HPLC; settings: for solubility at 24 h: 22.5 °C, thermodynamic from solid, ~20-25° C., read-out: Measured Conc. (solubility); for solubility at 24 h / Measured Conc. (solubility): ~24 h; for Measured Conc. (solubility): LOQ: 0.1 μg/mL
Description: About 2 mg of test article was added to a 1.5 mL vials which contained ˜1.0 mL of one medium listed in Table 7 and Table 8, which was then sealed. The mixtures were stirred at ˜20-25° C. for ˜24 hours. After that, the mixture was filtered by 0.45 μm filter membrane and then the supernatant was analyzed by HPLC.

[3] = Intrinsic dissolution rate in SGF; settings: 37° C., 100 rpm, linear scope within 2 to 120 min
Description: About 100 mg of Free Base Polymorphic Form A or Phosphate Polymorphic Form A was weighed into the intrinsic dissolution apparatus and the sample compressed for 1 minute with a compression force of ˜4 MPa to form a compacted pellet within the stainless-steel die. All loose powder was removed from the surface of the die. The intrinsic dissolution shaft was connected with the stainless-steel die and tightened so only one surface of the pellet was exposed (surface area=0.496 cm^2). The shaft in the spindle was adjusted to ensure the exposed surface of the compacted tablet was ˜3.8 cm from the bottom of the vessel when lowered. The temperature of chamber water was set at 37° C.±0.5° C., the shaft rotation at 100 rpm and the sampling time points at 2, 5, 10, 15, 30, 45, 60, 120 min. SGF was used as dissolution medium (900 mL). At each time point, solution samples were filtered, and the supernatant was analyzed by HPLC-UV.

[4] = pKa measurement by pH metric method; settings: protonated TPA023B; titrated pH 2 to pH 12, extrapolated to aqueous pKa
Description: 10 mg of TPA023B was used for the pKa measurement.
ISA Water (Ionic Strength Adjusted Water, 0.15 M KCl): Accurately weigh 5.591 g KCl into a 500 mL volumetric flask, dissolve the sample with water, add to volume and mix well. Cosolvent of 60% (v/v) DMSO. Dissolve 2.795 g potassium chloride in 100 mL distilled or deionised water and make up to 250 mL with analytical grade DMSO (Ionic strength adjusted DMSO solution).
Cosolvent of 80% (v/v) MeOH: Dissolve 2.795 g potassium chloride in 50 mL distilled or deionized water and make up to 250 mL with analytical grade MeOH (Ionic strength adjusted MeOH solution).
pKa Determination by pH Metric Method (with or without Co-Solvent):
About 1 mg of sample was weighed into a sample vial, about 1.5 mL of ISA water or 1.5 mL of co-solvent (80% MeOH or 60% DMSO) was added into the vial automatically. The sample solution pre-acidified to pH 2.0 with 0.5 M HCl by the instrument automatically, then titrated three times with base to get pKa value from pH 2 to pH 12, and then extrapolated to get aqueous pKa value. Using this method, the pKa of TPA023B was determined to be 2.19.

[5] = HPLC analysis of degradation of TPA023B with acids in acetone (salt screening)
Description: Salt screening via reaction crystallization was preliminarily conducted using five acids in four solvents or solvent mixtures. […] For p-toluenesulfonic acid, about 20 mg of TPA023B and about 1.1 molar equivalents of the corresponding acid were stirred in about 0.5 mL of each solvent. For controls, about 20 mg of TPA023B was stirred in about 0.5 mL of the corresponding solvent. The resulting mixture was heated to about 50° C. with continuous stirring for about 4 hrs and slowly cooled to about 20-25° C. overnight.
HPLC analysis was conducted on the acetone samples to determine the extent of degradation that occurred, if any.

[6] = Approximate solubility of TPA023B in organic solvents; settings: thermodynamic from solid; for solubility at 4 h: 25 °C, RT; for solubility: 50° C.
Description: About 25 mg of compound (TPA023B) was added to a 2.0 mL vial containing 0.5 mL of each organic solvent in Table 14, which was then sealed. The mixtures were stirred-mixed at 800 rpm, RT (25° C.) for 4 hours. After that, if the compound was not completely dissolved in the solvent, the mixture was then stirred-mixed at 800 rpm, 50° C. overnight. If the final mixture was clear solution, the solution would be evaporated by vacuum drying oven at 35° C. and the resulted solid would be checked by XRPD. If the final mixture was slurry, the slurry would be centrifuged at 14000 rpm for 5 minutes and then the residues would be dried by vacuum drying oven at 35° C. and checked by XRPD.

[7] = pH 3.0 citrate buffer (100 mM), initial pH 3.05
[8] = pH 4.5 citrate buffer (100 mM), initial pH 4.44
[9] = pH 7.4 PBS (50 mM), initial pH 7.40
[10] = pH 9.0 USP Buffer (50 mM), initial pH 8.94
[11] = organic solvent or mixture, 1,4-Dioxane
[12] = organic solvent or mixture, THF

- Purity (%) ([1]; 40° C./75% RH (open), 1 week): 98.64%
- Assay (%) ([1]; 40° C./75% RH (open), 1 week): 102.35%
- Purity (%) ([1]; 80° C. (open), 1 week): 98.62%
- Assay (%) ([1]; 80° C. (open), 1 week): 101.60%
- Purity (%) ([1]; Initial): 98.72%
- Assay (%) ([1]; Initial): 105.51%
- Purity (%) ([1]; Light, ~50 h): 98.60%
- Assay (%) ([1]; Light, ~50 h): 104.28%
- solubility at 24 h ([2]; pH 1.8, simulated gastric fluid, SGF, initial pH 1.80): 0.00138 mg/mL (≈ 0.00353 mM)
- solubility at 24 h ([2]; simulated gastric fluid, pH 1.2 Hydrochloric Acid Buffer (50 mM), initial pH 1.17): 0.00977 mg/mL (≈ 0.025 mM)
- solubility at 24 h ([2]; FaSSIF, initial pH 6.51): 0.00211 mg/mL (≈ 0.00539 mM)
- solubility at 24 h ([2]; FeSSIF, initial pH 5.00): 0.00963 mg/mL (≈ 0.0246 mM)
- solubility at 24 h ([2]; Purified water, initial pH 7.02, target 2 mg/mL): 0.00014 mg/mL (≈ 0.000358 mM)
- pH value of supernatant ([2]; FaSSIF, initial pH 6.51): 6.50
- pH value of supernatant ([2]; FeSSIF, initial pH 5.00): 5.02
- pH value of supernatant ([2]; Purified water, initial pH 7.02): 8.73
- pH value of supernatant ([2]; SGF, initial pH 1.80): 1.86
- pH value of supernatant ([2]; pH 1.2 Hydrochloric Acid Buffer (50 mM), initial pH 1.17): 1.12
- pH value of supernatant [2, 7]: 3.00
- Measured Conc. (solubility) [2, 7]: <LOQ
- pH value of supernatant [2, 8]: 4.45
- Measured Conc. (solubility) [2, 8]: <LOQ
- pH value of supernatant [2, 9]: 7.42
- Measured Conc. (solubility) [2, 9]: <LOQ
- pH value of supernatant [2, 10]: 8.98
- Measured Conc. (solubility) [2, 10]: <LOQ
- intrinsic dissolution rate [3]: 5×10^−5 mg cm^2 min-t
SMILES: CC(C)(O)c1cnn2c(-c3ccc(F)c(-c4c(F)cccc4C#N)c3)cnc2n1 [Free Base Polymorphic Form A, 2′,6-difluoro-5′-[3-(1-hydroxy-1-methylethyl)-imidazo[1,2-b][1,2,4]triazin-7-yl]biphenyl-2-carbonitrile]

- pKa [4]: ~2.19
- Purity (%) ([5]; control in acetone, 50° C. about 4 hrs): 99.33%
- Purity (%) ([5]; with H2SO4 in acetone): 98.33%
- Purity (%) ([5]; with H3PO4 in acetone): 98.88%
- Purity (%) ([5]; with HCl in acetone): 98.61%
- Purity (%) ([5]; with methane sulfonic acid in acetone): 98.71%
- Purity (%) ([5]; with p-toluene sulfonic acid in acetone): 98.65%
- solubility at 4 h [6, 11]: < 50 mg/mL
- solubility at 4 h ([6]; organic solvent or mixture, DMF): > 50 mg/mL
- solubility at 4 h ([6]; organic solvent or mixture, DMSO): > 50 mg/mL
- solubility at 4 h [6, 12]: < 50 mg/mL
- solubility ([6]; aqueous with cosolvent or surfactant or cyclodextrin, Acetone/H2O (1/1, v/v)): < 50 mg/mL
- solubility ([6]; aqueous with cosolvent or surfactant or cyclodextrin, EtOH/H2O (1/1, v/v)): < 50 mg/mL
- solubility [6, 11]: > 50 mg/mL
- solubility ([6]; organic solvent or mixture, Acetone): < 50 mg/mL
- solubility ([6]; organic solvent or mixture, Acetonitrile (ACN)): < 50 mg/mL
- solubility ([6]; organic solvent or mixture, DCM): < 50 mg/mL
- solubility ([6]; organic solvent or mixture, EtOAc): < 50 mg/mL
- solubility ([6]; organic solvent or mixture, Ethanol): < 50 mg/mL
- solubility ([6]; organic solvent or mixture, Heptane): < 50 mg/mL
- solubility ([6]; organic solvent or mixture, Isopropanol): < 50 mg/mL
- solubility ([6]; organic solvent or mixture, MEK): < 50 mg/mL
- solubility ([6]; organic solvent or mixture, MTBE): < 50 mg/mL
- solubility ([6]; organic solvent or mixture, Methanol): < 50 mg/mL
- solubility [6, 12]: > 50 mg/mL
- solubility ([6]; organic solvent or mixture, Toluene): < 50 mg/mL
- solubility ([6]; water, H2O): < 50 mg/mL
SMILES: CC(C)(O)c1cnn2c(-c3ccc(F)c(-c4c(F)cccc4C#N)c3)cnc2n1 [TPA023B, 2′,6-difluoro-5′-[3-(1-hydroxy-1-methylethyl)-imidazo[1,2-b][1,2,4]triazin-7-yl]biphenyl-2-carbonitrile]
